Source: patent publication US8865641B2, “Methods of treatment of fatty liver disease by pharmacological activation of cholinergic pathways” (priority 2011, dated 2014)

Legend:
Format in all cases: in vivo, C57BL/6J mice
[1] = system: mice with high-fat diet-induced obesity; assay: Fasting blood glucose, plasma insulin, HOMA-IR and plasma total cholesterol in high-fat diet-fed mice; conditions: 4 mg/kg i.p. once daily for 4 weeks, HFD-G vs HFD-S mice
Method: (§1) C57BL/6J mice were initially fed a regular chow for 10 days and then switched to a high-fat diet (D12492, 60% kcal from fat, shown in FIG. 2) or its corresponding low-fat control diet (D12450B, 10% kcal from fat, shown in FIG. 1) (Research Diets, New Brunswick, N.J.) for 12 weeks. After the first 8 weeks mice on the high-fat diet were divided into 2 groups and treated with saline (i.p. once daily) or galantamine (Galanthamine Hydrobromide, EMD Biosciences, Inc., La Jolla, Calif., USA) (4 mg/kg, i.p., once daily) for the remaining 4 weeks of the study. In parallel, mice on the low-fat (control) diet were treated with saline. Body weight and food intake were determined on a weekly basis by trained personnel of the Center for Comparative Physiology at the Feinstein Institute, who were blinded to treatment groups. At the end of the experimental time period mice were euthanized and abdominal adiposity, liver weight, cytokine and adipokine levels, metabolic profile, insulin resistance, and liver histology were evaluated. In a separate experiment, groups of mice were fed and treated and body weights and food intake recorded as described above. At the end of the experimental time period mice were subjected to the insulin sensitivity test or the glucose tolerance test as described below.
Blood glucose during the study was measured by nicking the tails and using the Contour blood glucose meter (Bayer, Elkhart, Ind.) with Contour blood glucose test strips according to the manufacturer's recommendations. After blood collection the cuts were compressed with sterile gauze until bleeding termination.
(§2) Plasma samples were sent to Millipore and plasma insulin, leptin, MCP-1, PAI-1, resistin, TNF and IL-6 levels were determined by using the Millipore's MILLIPLEX map mouse adipokine panel assay with the following detection sensitivity limits: leptin 16.71 pg/mL; resistin 1.79 pg/mL; IL-6 1.89 pg/mL; TNF 4.39 pg/mL; MCP-1 14.4 pg/mL; PAI-1 16.4 pg/mL, insulin 42.2 pg/mL. Plasma samples were sent to IDEXX and plasma levels of total cholesterol and ALT were determined by using IDEXX's Olympus analyzers and spectrophotometric determination. Plasma adiponectin was measured by using the mouse adiponectin/Acrp30 immunoassay (R&D Systems) according to the manufacturer's recommendations.
Insulin resistance was evaluated by using glucose and insulin level values and by applying the homeostatic model assessment-insulin resistance (HOMA-IR) formula, presented in Mlinar et al. (2007) Molecular mechanisms of insulin resistance and associated diseases. Clin Chim Acta 375:20-35, the relevant teachings of which is incorporated herein by reference. Specifically, the expression used to evaluate insulin resistance is: HOMA index=insulin (mU/L)×[glucose (mmol/L)/22.5] […]

[2] = system: mice with high-fat diet-induced obesity; assay: Body weight, food intake and abdominal adiposity in high-fat diet-fed mice; conditions: for body weight: 4 mg/kg i.p. once daily, FIG. 3A
Method: (§3) Experiments with male C57BL/6J mice (5-6 month old, Jackson Lab) were performed in accordance with the NIH Guidelines under protocols approved by the IACUC Committee of the Feinstein Institute for Medical Research, North Shore-LIJ Health System, Manhasset, N.Y., USA.
as §1
(§4) After an overnight fast and following body weight and blood glucose determination mice were euthanized by CO2 asphyxiation. Heparinized blood was obtained by cardiac puncture and centrifuged within 30 min at 5,000 rpm for 10 min. Visceral adipose tissues and liver were harvested, rinsed with saline, and weighed. One piece of liver (the biggest lobe) was fixed in formalin for further H&E staining. Plasma and visceral fats (were frozen on dry ice) were transferred at −20° C. prior to further manipulations.

[3] = system: mice with high-fat diet-induced obesity; assay: Fatty liver manifestations (plasma ALT, liver weight, hepatic steatosis on H&E liver sections) in high-fat diet-fed mice; conditions: 4 mg/kg i.p. once daily for 4 weeks
Method: as §3
as §1, with “At the end of the experimental time period mice were subjected to the insulin sensitivity test or the glucose tolerance test as described below.” left out
as §2
Formalin fixed liver tissue was imbedded in paraffin, sliced and then liver tissue sections were subjected to hematoxylin and eosin (H&E) staining and microscopic slides prepared. Hepatic steatosis was determined by microscopic evaluation of H&E stained liver sections for lipid accumulation by using Zeiss apotome and semi-quantified by applying a previously implemented grading criteria: no fat accumulation (grade 0); less than 33% fat-containing hepatocytes (grade 1); less than 66% fat-containing hepatocytes (grade 2); more than 66% fat-containing hepatocytes (grade 3).

[4] = system: mice with high-fat diet-induced obesity; assay: Separate experiment: body weight and food intake in high-fat diet-fed mice before IST and GTT; conditions: 4 mg/kg i.p. once daily for 4 weeks
Method: as §1, with “At the end of the experimental time period mice were subjected to the insulin sensitivity test or the glucose tolerance test as described below.” left out
Separate groups of mice were fed and treated and body weights and food intake recorded as described above (in Experimental design). […]

[5] = system: mice with high-fat diet-induced obesity; assay: Glucose tolerance test (GTT) in high-fat diet-fed mice; conditions: HFD-G as compared to HFD-S mice
Method: (§5) Separate groups of mice were fed and treated and body weights and food intake recorded as described above (in Experimental design). At the end of the 12 week period, mice from the three experimental groups were used in the insulin sensitivity and glucose tolerance tests. In the insulin sensitivity test, after an overnight (18 hours) fast, mice (n=10 per group) were weighed and administered i.p. with insulin (Humulin R, Lilly, 0.5 units/kg). In the glucose tolerance test, after an overnight (21 hours) fast, mice (n=10 per group) were weighed and injected i.p. with glucose (10% D glucose solution, Sigma, 1 g/kg). Glucose levels were determined at 0, 15, 30, 60, and 120 min after insulin or glucose administration in blood from the tail vein by using the Contour blood glucose meter (Bayer, Elkhart, Ind.) with Contour blood glucose test strips.

[6] = system: mice with high-fat diet-induced obesity; assay: Insulin sensitivity test (IST) in high-fat diet-fed mice
Method: as §5

[7] = system: mice with high-fat diet-induced obesity; assay: Plasma cytokine/adipokine levels in high-fat diet-fed mice (MILLIPLEX mouse adipokine panel; adiponectin immunoassay); conditions: 4 mg/kg i.p. once daily for 4 weeks
Method: as §1, §4, §2

[8] = 4 mg/kg i.p. once daily for 4 weeks, HFD-G group, Table 1 in FIG. 4

COc1ccc2c3c1O[C@H]1C[C@@H](O)C=C[C@@]31CCN(C)C2 [galantamine]
fasting blood glucose levels ([1]; FIG. 6A): significantly reduced | plasma insulin levels ([1]; FIG. 6B): significantly reduced | plasma total cholesterol levels ([1]; FIG. 6D): significantly decreased | insulin resistance (HOMA-IR) ([1]; calculated from glucose and insulin, FIG. 6C): reversed this insulin resistance | mesenteric adipose tissue weight [2, 8]: significantly reduced | retroperitoneal/perirenal adipose tissue weight [2, 8]: significantly reduced | food intake ([2]; 4 mg/kg i.p. once daily for 4 weeks, HFD-G vs HFD-S group during treatment, FIG. 3B): additional suppression of food intake | body weight ([2]; HFD-G mice at week 9 as compared to week 8, then sustained): lower after the first week of treatment | body weight ([2]; HFD-G vs HFD-S mice at weeks 11 and 12): lower than the weight of HFD-S mice | hepatocyte fat accumulation (steatosis), microscopic observations ([3]; HFD-G mice, H&E liver sections, FIG. 9): decreased lipid accumulation | liver weight ([3]; HFD-G vs HFD-S mice, FIG. 7B): significant liver weight decrease | plasma alanine aminotransferase (ALT) levels ([3]; HFD-G vs HFD-S mice, end of 12 week study, FIG. 7A): significantly decreased | lipid accumulation in livers, semi-quantitative analysis ([3]; HFD-G vs HFD-S mice, steatosis grade 0-3, FIG. 10): significantly reduced | body weight ([4]; HFD-G mice, while HFD-S continued to increase, FIG. 11A): decreased | food intake ([4]; HFD-G vs HFD-S group, FIG. 11B): significantly lower | area under the curve of the GTT data ([5]; FIG. 13B): significantly lower | blood glucose levels in GTT ([5]; glucose 1 g/kg i.p. after overnight fast, FIG. 13A): suppressed blood glucose levels | blood glucose levels in IST at 15 min and 30 min ([6]; HFD-G as compared to HFD-S mice, insulin 0.5 units/kg i.p. after overnight fast): significantly lower | blood glucose levels in IST at 120 min ([6]; HFD-G as compared to LFD-S mice, insulin 0.5 units/kg i.p. after overnight fast): significantly lower | time of lowest blood glucose levels in IST ([6]; HFD-G mice after insulin 0.5 units/kg i.p., unchanged at 60 min, increased at 120 min, FIG. 12): 30 min | plasma TNF levels ([7]; HFD-G group, no value above the assay sensitivity limit): < 4.39 pg/mL | plasma MCP-1 levels ([7]; HFD-G mice, FIG. 5C): significantly reduced | plasma IL-6 levels ([7]; HFD-G vs HFD-S mice, FIG. 5A): significantly reduced | plasma leptin levels ([7]; HFD-G vs HFD-S mice, FIG. 5B): significantly reduced | plasma resistin levels ([7]; HFD-G vs HFD-S mice, FIG. 5D): significantly lowered | plasma adiponectin levels ([7]; HFD-G vs HFD-S mice, FIG. 5F): a certain increase | plasma plasminogen activator inhibitor-1 (PAI-1) levels ([7]; HFD-S higher than LFD-S and HFD-G mice, FIG. 5E): none of these differences were statistically significant
